The source of these data is patent US8518953B2, “Aminopyrimidines useful as inhibitors of protein kinases” (Vertex Pharmaceuticals Incorporated, priority 2007, dated 2013).

SMILES strings stand for the structures. A value given as a limit tells only on which side of the number the result lay.

As a reminder, the Ki is a measure of affinity in units of concentration, obtained from inhibition or displacement. Lower therefore signals a stronger hold on the target.

One assay concerns the target T1, GSK-3β (AA 1-420) (Homo sapiens, UniProt P49841).
T1 construct: GSK-3β (AA 1-420)
The experiment in a line: GSK-3 Inhibition Assay (standard coupled enzyme system). It counts as biochemical. The settings on record: 20 μM ATP, 300 μM peptide, 20 nM GSK-3β, 30° C. As to the method:
Compounds of the present invention were screened for their ability to inhibit GSK-3β (AA 1-420) activity using a standard coupled enzyme system (Fox et al., Protein Sci. 1998, 7, 2249). Reactions were carried out in a solution containing 100 mM HEPES (pH 7.5), 10 mM MgCl2, 25 mM NaCl, 300 μM NADH, 1 mM DTT and 1.5% DMSO. Final substrate concentrations in the assay were 20 μM ATP (Sigma Chemicals, St Louis, Mo.) and 300 μM peptide (American Peptide, Sunnyvale, Calif.). Reactions were carried out at 30° C. and 20 nM GSK-3β. Final concentrations of the components of the coupled enzyme system were 2.5 mM phosphoenolpyruvate, 300 μM NADH, 30 μg/ml pyruvate kinase and 10 μg/ml lactate dehydrogenase.
An assay stock buffer solution was prepared containing all of the reagents listed above with the exception of ATP and the test compound of the present invention. The assay stock buffer solution (175 μl) was incubated in a 96 well plate with 5 μl of the test compound of the present invention at final concentrations spanning 0.002 μM to 30 μM at 30° C. for 10 min. […] Rates of reaction were obtained using a Molecular Devices Spectramax plate reader (Sunnyvale, Calif.) over 10 min at 30° C. The Ki values were determined from the rate data as a function of inhibitor concentration.

Another assay has as its system GSK-3α/β pTYR. The experiment in a line: pTYR Biomarker Analysis in brains of MCAO rats (Western blot). The note with it: all doses, at the termination of the study, compared to vehicle treated rats. The assay is classed as in vivo, rat. As to the method:
RIPA consists of 0.5 ml 10% SDS, 2.5 ml 10% Sodium Deoxycholate, 0.5 ml NP40, and 46.5 ml PBS. […] 10 mL of lysis buffer (modified RIPA) is added to tissue (1 ml/½ brain) and homogenized on ice. The lysates are then centrifuged at 10000 rpm for 10 min at 4° C. The supernatant is then transferred to a new tube and kept on ice. The supernatant samples are respun at 10000 rpm for 10 min at 4° C. The supernatant is then transferred to a new tube and kept on ice. An aliquot of the supernatant is taken and the protein is measured with the Pierce BCA protein assay kit (cat#23225), using BSA standard curve (do a 1:25 dilution in PBS). The remaining supernatant is diluted to 1 ug/ul with Biorad Laemmli Sample buffer (cat#161-0737) with β-mercaptoethanol added. The samples are boiled for 5 min at 95° C. and spun in a microfuge for 1 minute. The samples are snap frozen on dry ice and stored at −20° C. 10 ug of protein/lane (10 uL) is then loaded and the Western blot is run according to Example 3. Inhibition of GSK-3α/β pTYR is determined by comparing the density of the protein band in samples obtained from animals treated with compound to samples from vehicle treated animals. […] Lysates were analyzed by Western blot (see Example 3) and probed for GSK-3α/β pTYR levels.
(In general: Immunoblotting shows a protein as a band on a membrane.)

T1 sequence (P49841 whole entry, species assumed, the tested form may be a part): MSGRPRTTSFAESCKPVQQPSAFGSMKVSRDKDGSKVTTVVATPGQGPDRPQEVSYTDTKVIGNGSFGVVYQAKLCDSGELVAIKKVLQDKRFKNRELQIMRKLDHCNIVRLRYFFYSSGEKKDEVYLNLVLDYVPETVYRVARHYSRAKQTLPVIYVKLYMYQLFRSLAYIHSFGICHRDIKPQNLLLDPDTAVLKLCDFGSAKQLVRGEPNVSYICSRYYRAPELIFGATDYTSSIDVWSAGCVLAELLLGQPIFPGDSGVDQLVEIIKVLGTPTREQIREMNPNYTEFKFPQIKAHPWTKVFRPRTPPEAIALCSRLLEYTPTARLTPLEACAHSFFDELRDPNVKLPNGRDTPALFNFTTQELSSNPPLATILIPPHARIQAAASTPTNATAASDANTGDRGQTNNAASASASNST

As for `Cc1nc(-c2ccccc2Cl)nc(Nc2n[nH]c3ncc(F)cc23)c1C` [Compound I-1, N-(2-(2-chlorophenyl)-5,6-dimethylpyrimidin-4-yl)-5-fluoro-1H-pyrazolo[3,4-b]pyridin-3-amine], the Ki at GSK-3β (AA 1-420) was < 5 nM. Further, the “GSK-3α/β pTYR signal in the brain” value in the assay on GSK-3α/β pTYR is “significant reduction in pTYR signal”.
